From US20200339544A1 (JOINT STOCK COMPANY "BIOCAD", priority 2017, published 2020)

Assays:
[1] = Permeability through monolayer of Caco-2 cells; type: in vitro ADME; conditions: human, Caco-2 monolayer; for Papp A→B at 2 h, 10 µM: pH 6.5 upper / pH 7.4 lower, 2 h at 37° C.; for efflux ratio at 2 h, 10 µM: Papp B-A/Papp A-B
From the text: 2) Assessment of permeability through monolayer of Caco-2 cells.
Assessment of permeability through the monolayer of Caco-2 cells allows to evaluate the ability of the candidate compounds to penetrate through biological membranes by active and passive transport.
Caco-2, the cells of the intestinal epithelium, had been cultured in transwell plate inserts with the filters (with pores of 0.4 μm, BD Falcon with High Density) for 21 days, and then the integrity of the monolayer were estimated with Lucifer Yellow (Sigma-Aldrich, USA) by standard protocol. When setting the A→B transfer (“intestinal lumen”—“blood stream” transfer), solutions of test substances were added in a buffer with pH 6.5 (HBSS, 10 mM HEPES, 15 mM glucose solution) with the concentration of 10 μM into the upper chamber; the lower chamber was filled with a buffer with pH 7.4 (HBSS, 10 mM HEPES, 15 mM Glucose, 1% BSA). When setting B→A transfer (“blood stream”—“intestinal lumen” transfer), the upper chamber was filled with the buffer with pH 6.5, and solutions of the test substances were added in the buffer with pH 7.4 at the concentration of 10 μM in the lower chamber. Propranolol was used as a control substance (as it has high permeability).
After incubating for 2 h at 37° C. under 5% CO2, the amounts of test substances were determined in the upper and lower chambers by HPLC using Agilent1200 chromatograph (Agilent, USA) with preliminary protein precipitation with acetonitrile. We used gradient elution (1 mL/min flow rate). We determined the areas of peaks corresponding to the compounds. On the basis of peak areas in the calibration standards we determined the concentration of compound in the initial solution and in the samples from the wells of the upper and lower chambers. Papp, permeability through the cell layer, was calculated using the following formula:
Papp=(C(t)*V)/(C(0)*t*Area), wherein
The value was calculated with the following formula:
efflux=Papp B-A/Papp A-B, wherein • Papp A-B—the volume of permeability in A→B test; • Papp B-A—he volume of permeability in B→A test.

[2] = Chemical stability in human blood plasma; type: in vitro ADME; conditions: pooled human blood plasma; 10 μm; 4 hours at 37° C.; substance amount remaining
How it was run: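 Percent of parent remaining was derived by comparing HPLC peak areas at time zero and after 4 h at 37 °C. Test compound was at 10 μM in human plasma pooled from ten donors, and proteins were precipitated with acetonitrile before analysis.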

[3] = biological target: T1, DM EGFR (DoubleMutantEGFR, L828R/T790M) (Homo sapiens, UniProt P00533, L858R/T790M); experiment: Inhibition of DM EGFR kinase activity (ADP-Glo); type: biochemical; conditions: for IC50: inhibition of kinase activity, EGFR DM (L828R/T790M); for SI, IC50(WT)/IC50(DM): selectivity index, kinase EGFR WT vs EGFR DM
T1 construct: purchased SignalChem
How it was run: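 Luminescent ADP-Glo readout was used for both wild-type and L858R/T790M EGFR, each run 180 minutes at 37° C. Reactions used a solution of 50 μM ATP with 0.5 mg/mL peptide substrate. Four-parameter logistic curves gave IC50.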

HepG2 cells = experiment: General cytotoxicity on HepG2 cells; type: cell-based; conditions: therapeutic index, CC50 HepG2 / IC50 H1975
How it was run: (§1)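 HepG2 cells seeded at 2*10^4 cells per well and compounds added in DMEM with 2% FBS for 72 h at 37 °C. Viability read with Alamar Blue and CC50 derived as for IC50. Therapeutic index taken as HepG2 CC50 over H1975 IC50.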

[4] = General cytotoxicity on HepG2 cells; type: cell-based; conditions: human; general cytotoxicity, HepG2 cells, 72 hours, average of several tests
How it was run: as §1

[5] = Enzyme stability in human liver S9 fractions; type: in vitro ADME; conditions: 0.5 mg/mL pooled human liver S9 fractions; 10 μM compound; 37° C.; pH 7.4; read-out: Stability in liver S9 fractions, Clint
How it was run: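 Compound at 10 μM was incubated at 37 °C with 0.5 mg/mL pooled human liver S9, 2 mM β-NAD and 4 mM MgCl2 in 0.1 M sodium phosphate, pH 7.4, then quenched with acetonitrile and analysed chromatographically. T½ and CLint were derived from the slope of log peak area versus time.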

| Structure (SMILES) | Papp A→B at 2 h, 10 µM [1] [×10⁻⁶ cm/s] | efflux ratio at 2 h, 10 µM [1] | Stability in blood plasma, % [2] [%] | IC50 [3] [µM] | SI, IC50(WT)/IC50(DM) [3] | TI, CC50/IC50 (HepG2 cells) | CC50 at 72 h [4] [µM] | Intrinsic clearance in human liver S9 fractions at 10 µM [5] [µL/min/mg] |
| --- | --- | --- | --- | --- | --- | --- | --- | --- |
| C=CC(=O)Nc1cc(Nc2nccc(C(=O)c3ccccc3C(F)(F)F)n2)c(OC)cc1N(C)CCN(C)C [EGFR_3365, N-(2-((2-(dimethylamino)ethyl) (methyl)amino)-4-methoxy-5-((4-(2-(trifluoromethyl)benzoyl)pyrimidin-2-yl)amino)phenyl)acrylamide] | 5.28 | 1.29 | 90.3 | 0.022 | 26.69 | 423 | 25.4 | 13.6 |
| C=CC(=O)Nc1cc(Nc2cc(C(=O)c3ccc(N(C)C)cc3)ccn2)c(OC)cc1N(C)CCN(C)C.O=C(O)C(F)(F)F [EGFR_3365_4, N-(5-((4-(4-(dimethylamino)benzoyl)pyridin-2-yl)amino)-2-((2-(dimethylamino)ethyl) (methyl)amino)-4-methoxyphenyl)acrylamide 2,2,2-trifluoroacetate] | 2.86 | 2 | – | 0.0214 | 10.79 | 419 | 14.8 | 0.9 |
| C=CC(=O)Nc1cc(Nc2nccc(C(=O)c3ccc(F)cc3)n2)c(OC)cc1N(C)CCN(C)C [EGFR_3365_10, N-(2-((2-(dimethylamino)ethyl)(methyl)amino)-5-((4-(4-fluorobenzoyl)pyrimidin-2-yl)amino)-4-methoxyphenyl) acrylamide] | 2.88 | 0.58 | 94.2 | 0.00728 | 29.06 | 144 | 30.4 | 6.8 |
| C=CC(=O)Nc1cc(Nc2nccc(C(=O)c3ccc(OCCC)cc3)n2)c(OC)cc1N(C)CCN(C)C [EGFR_3365_30, N-(2-((2-(dimethylamino)ethyl)(methyl)amino)-4-methoxy-5-((4-(4-propoxybenzoyl)pyrimidin-2-yl)amino)phenyl)acrylamide] | 4.36 | 0.5 | – | 0.00769 | 79.77 | 666 | 10.9 | 1.2 |
| C=CC(=O)Nc1cc(Nc2cc(C(=O)c3ccc(OCCC)cc3)ccn2)c(OC)cc1N(C)CCN(C)C [EGFR_3365_50, N-(2-((2-(dimethylamino)ethyl)(methyl)amino)-4-methoxy-5-((4-(4-propoxybenzoyl)pyridin-2-yl)amino)phenyl)acrylamide] | 2 | 0.3 | 89.0 | 0.00329 | 9.74 | 262 | 12.4 | 1.1 |
| C=CC(=O)Nc1cc(Nc2cc(C(=O)c3ccc(OC)cc3)ccn2)c(OC)cc1N(C)CCN(C)C [EGFR_3365_51, N-(2-((2-(dimethylamino)ethyl)(methyl)amino)-4-methoxy-5-((4-(4-methoxybenzoyl)pyridin-2-yl)amino)phenyl)acrylamide] | 3.2 | 1.7 | – | 0.00472 | 10.75 | 620 | 20.9 | 16.2 |
| C=CC(=O)Nc1cc(Nc2cc(C(=O)c3ccc(OCC)cc3)ccn2)c(OC)cc1N(C)CCN(C)C [EGFR_3365_52, N-(2-((2-(dimethylamino)ethyl)(methyl)amino)-5-((4-(4-ethoxybenzoyl)pyridin-2-yl)amino)-4-methoxyphenyl) acrylamide] | 3 | 1.2 | – | 0.00641 | 10.58 | 237 | 15.6 | 16.6 |
| C=CC(=O)Nc1cc(Nc2cc(C(=O)c3ccc(N4CCCC4)cc3)ccn2)c(OC)cc1N(C)CCN(C)C [EGFR_3365_56, N-(2-((2-(dimethylamino)ethyl)(methyl)amino)-4-methoxy-5-((4-(4-(pyrrolidin-1-yl)benzoyl)pyridin-2-yl)amino)phenyl)acrylamide] | 1.8 | 1.7 | 83.2 | 0.0063 | 19.14 | 325 | 9.51 | 9.1 |
| C=CC(=O)Nc1cc(Nc2nccc(C(=O)c3ccc(N4CCC4)cc3)n2)c(OC)cc1N(C)CCN(C)C [EGFR_3365_58, N-(5-((4-(4-(azetidin-1-yl)benzoyl)pyrimidin-2-yl)amino)-2-((2-(dimethylamino)ethyl)(methyl)amino)-4-methoxyphenyl)acrylamide] | 5.8 | 1.1 | 99.7 | 0.00236 | 16.81 | 4241 | 44.4 | 17.7 |
| C=CC(=O)Nc1cc(Nc2nccc(C(=O)c3ccc(N4CC(OC)C4)cc3)n2)c(OC)cc1N(C)CCN(C)C [EGFR_3365_61, N-(2-((2-(dimethylamino)ethyl)(methyl)amino)-4-methoxy-5-((4-(4-(3-methoxyazetidin-1-yl)benzoyl)pyrimidin-2-yl)amino)phenyl)acrylamide] | 5.5 | 1.8 | 91.8 | 0.00276 | 19.27 | 5296 | 43 | 12.8 |
| C=CC(=O)Nc1cc(Nc2nccc(C(=O)c3ccc(N4CCCC4)cc3)n2)c(OC)cc1N(C)CCN(C)C [EGFR_3365_63, N-(2-((2-(dimethylamino)ethyl)(methyl)amino)-4-methoxy-5-((4-(4-(pyrrolidin-1-yl)benzoyl)pyrimidin-2-yl)amino)phenyl)acrylamide] | 4.9 | 1 | 100.0 | 0.00094 | 24.32 | 2239 | 13 | 15.6 |
| C=CC(=O)Nc1cc(Nc2nccc(C(=O)c3ccc(OCCCC)cc3)n2)c(OC)cc1N(C)CCN(C)C [EGFR_3365_66, N-(5-((4-(4-butoxybenzoyl)pyrimidin-2-yl)amino)-2-((2-(dimethylamino)ethyl)(methyl)amino)-4-methoxyphenyl)acrylamide] | 1.3 | 0.4 | 97.0 | 0.00186 | 25.13 | 278 | 9.64 | 1.3 |
| C=CC(=O)Nc1cc(Nc2nccc(C(=O)c3ccc(OCCC)cc3OCCC)n2)c(OC)cc1N(C)CCN(C)C [EGFR_3365_70, N-(2-((2-(dimethylamino)ethyl)(methyl)amino)-5-((4-(2,4-dipropoxybenzoyl)pyrimidin-2-yl)amino)-4-methoxyphenyl)acrylamide] | 2.5 | 0.4 | 90.0 | 0.0147 | 16.96 | 56 | 11.5 | 0.7 |
